The test system of assay [1] is SARS-CoV-2 Omicron variant. The experiment in a line: microbe, parasite or virus in culture. Type of assay: cell-based. Particulars: Severe acute respiratory syndrome coronavirus 2; Caco-2 cells, dsRNA immunofluorescence; read-out: EC50 Omikron.
The subject of the next assay is SARS-CoV-2 Delta variant. In words: microbe, parasite or virus in culture. Type of assay: cell-based. Particulars: Severe acute respiratory syndrome coronavirus 2; Caco-2 cells, dsRNA immunofluorescence.

In general, EC50 refers to the concentration giving half of the maximal effect. Regarding `[2H]C([2H])([2H])Oc1cccc(-c2cc(F)c(NC(=O)c3ccsc3C(=O)NOC)c(F)c2)c1` [Example 9, N3-(3,5-Difluoro-3′-(methoxy-d3)-[1,1′-biphenyl]-4-yl)-N2-methoxythiophene-2,3-di-carboxamide], the EC50 (in assay [1]; in the assay on SARS-CoV-2 Delta variant) was under 3 nM in each case.

The record behind these values is patent publication US20250066290A1, “DHODH INHIBITORS CONTAINING A CARBOXYLIC ACID BIOISOSTERE” (IMMUNIC AG, priority 2021, published 2025).
